Measured values taken from PubChem BioAssay (NCI).
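How tested: cells in 96-well plates exposed to compound for 48 hours at five concentrations. Definition used: TGI = concentration required for complete inhibition of growth.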

How the values were obtained:
Assay in all cases: growth of human tumour cells (NCI), 48 h
786-0 renal = test system: 786-0 renal
A549 NSCLC = test system: A549 NSCLC
ACHN renal = test system: ACHN renal
CAKI-1 renal = test system: CAKI-1 renal
CCRF-CEM leukemia = test system: CCRF-CEM leukemia
COLO 205 colon = test system: COLO 205 colon
DLD-1 colon = test system: DLD-1 colon
DMS 114 small cell lung = test system: DMS 114 small cell lung
DMS 273 small cell lung = test system: DMS 273 small cell lung
EKVX NSCLC = test system: EKVX NSCLC
HCT-116 colon = test system: HCT-116 colon
HOP-92 NSCLC = test system: HOP-92 NSCLC
HT29 colon = test system: HT29 colon
IGROV1 ovarian = test system: IGROV1 ovarian
K-562 leukemia = test system: K-562 leukemia
KM12 colon = test system: KM12 colon
KM20L2 colon = test system: KM20L2 colon
LOX IMVI melanoma = test system: LOX IMVI melanoma
LXFL 529 NSCLC = test system: LXFL 529 NSCLC
M14 melanoma = test system: M14 melanoma
MALME-3M melanoma = test system: MALME-3M melanoma
MOLT-4 leukemia = test system: MOLT-4 leukemia
NCI-H226 lung = test system: NCI-H226 lung
NCI-H23 lung = test system: NCI-H23 lung
NCI-H460 lung = test system: NCI-H460 lung
NCI-H522 lung = test system: NCI-H522 lung
OVCAR-3 ovarian = test system: OVCAR-3 ovarian
OVCAR-4 ovarian = test system: OVCAR-4 ovarian
OVCAR-5 ovarian = test system: OVCAR-5 ovarian
OVCAR-8 ovarian = test system: OVCAR-8 ovarian
RXF 393 renal = test system: RXF 393 renal
SF-268 CNS = test system: SF-268 CNS
SF-295 CNS = test system: SF-295 CNS
SF-539 CNS = test system: SF-539 CNS
SK-MEL-2 melanoma = test system: SK-MEL-2 melanoma
SK-MEL-5 melanoma = test system: SK-MEL-5 melanoma
SK-OV-3 ovarian = test system: SK-OV-3 ovarian
SN12C renal = test system: SN12C renal
SNB-19 CNS = test system: SNB-19 CNS
SNB-75 CNS = test system: SNB-75 CNS
SNB-78 CNS = test system: SNB-78 CNS
SR leukemia = test system: SR leukemia
SW-620 colon = test system: SW-620 colon
TK-10 renal = test system: TK-10 renal
U251 CNS = test system: U251 CNS
UACC-62 melanoma = test system: UACC-62 melanoma
UO-31 renal = test system: UO-31 renal
XF 498 CNS = test system: XF 498 CNS
A498 renal = test system: A498 renal
HCC-2998 colon = test system: HCC-2998 colon
HCT-15 colon = test system: HCT-15 colon
HL-60(TB) leukemia = test system: HL-60(TB) leukemia
HOP-18 NSCLC = test system: HOP-18 NSCLC
HOP-62 NSCLC = test system: HOP-62 NSCLC
M19-MEL melanoma = test system: M19-MEL melanoma
RPMI-8226 leukemia = test system: RPMI-8226 leukemia
RXF-631 renal = test system: RXF-631 renal
SK-MEL-28 melanoma = test system: SK-MEL-28 melanoma
UACC-257 melanoma = test system: UACC-257 melanoma

Measured: TGI

CC(C)C12Cc3c(ccc4ccccc34)OC1(C)Oc1ccc3ccccc3c1C2 (stereo unspecified)
> 100 µM: 786-0 renal | A549 NSCLC | ACHN renal | CAKI-1 renal | CCRF-CEM leukemia | COLO 205 colon | DLD-1 colon | DMS 114 small cell lung | DMS 273 small cell lung | EKVX NSCLC | HCT-116 colon | HOP-92 NSCLC | HT29 colon | IGROV1 ovarian | K-562 leukemia | KM12 colon | KM20L2 colon | LOX IMVI melanoma | LXFL 529 NSCLC | M14 melanoma | MALME-3M melanoma | MOLT-4 leukemia | NCI-H226 lung | NCI-H23 lung | NCI-H460 lung | NCI-H522 lung | OVCAR-3 ovarian | OVCAR-4 ovarian | OVCAR-5 ovarian | OVCAR-8 ovarian | RXF 393 renal | SF-268 CNS | SF-295 CNS | SF-539 CNS | SK-MEL-2 melanoma | SK-MEL-5 melanoma | SK-OV-3 ovarian | SN12C renal | SNB-19 CNS | SNB-75 CNS | SNB-78 CNS | SR leukemia | SW-620 colon | TK-10 renal | U251 CNS | UACC-62 melanoma | UO-31 renal | XF 498 CNS

CNC(=O)NCNC(=O)NC
> 100 µM: 786-0 renal | A498 renal | A549 NSCLC | CAKI-1 renal | CCRF-CEM leukemia | COLO 205 colon | DLD-1 colon | DMS 114 small cell lung | DMS 273 small cell lung | EKVX NSCLC | HCC-2998 colon | HCT-116 colon | HCT-15 colon | HL-60(TB) leukemia | HOP-18 NSCLC | HOP-62 NSCLC | HOP-92 NSCLC | HT29 colon | IGROV1 ovarian | K-562 leukemia | KM12 colon | KM20L2 colon | LOX IMVI melanoma | LXFL 529 NSCLC | M14 melanoma | M19-MEL melanoma | MALME-3M melanoma | MOLT-4 leukemia | NCI-H23 lung | NCI-H460 lung | OVCAR-3 ovarian | OVCAR-4 ovarian | OVCAR-5 ovarian | OVCAR-8 ovarian | RPMI-8226 leukemia | RXF-631 renal | SF-295 CNS | SF-539 CNS | SK-MEL-2 melanoma | SK-MEL-28 melanoma | SK-MEL-5 melanoma | SK-OV-3 ovarian | SNB-75 CNS | SNB-78 CNS | SW-620 colon | TK-10 renal | U251 CNS | UACC-257 melanoma | UACC-62 melanoma

c1ccc(-c2nc3ccccc3nc2SCc2cccnc2)cc1
> 100 µM: 786-0 renal | A549 NSCLC | ACHN renal | CCRF-CEM leukemia | COLO 205 colon | DMS 114 small cell lung | DMS 273 small cell lung | EKVX NSCLC | HCT-116 colon | HL-60(TB) leukemia | HOP-18 NSCLC | HOP-92 NSCLC | HT29 colon | K-562 leukemia | LXFL 529 NSCLC | M14 melanoma | MALME-3M melanoma | MOLT-4 leukemia | NCI-H226 lung | NCI-H23 lung | OVCAR-3 ovarian | OVCAR-4 ovarian | OVCAR-8 ovarian | RPMI-8226 leukemia | SF-268 CNS | SF-295 CNS | SK-MEL-28 melanoma | SK-OV-3 ovarian | SN12C renal | SNB-19 CNS | SNB-75 CNS | SNB-78 CNS | U251 CNS | UACC-257 melanoma | UO-31 renal | XF 498 CNS

CCCCCOCC(O)CO (stereo unspecified)
> 100 µM: 786-0 renal | A498 renal | A549 NSCLC | ACHN renal | CAKI-1 renal | COLO 205 colon | DLD-1 colon | DMS 114 small cell lung | DMS 273 small cell lung | EKVX NSCLC | HCT-116 colon | HCT-15 colon | HOP-18 NSCLC | HOP-62 NSCLC | HOP-92 NSCLC | IGROV1 ovarian | KM12 colon | KM20L2 colon | LOX IMVI melanoma | MALME-3M melanoma | NCI-H226 lung | NCI-H23 lung | NCI-H460 lung | OVCAR-3 ovarian | OVCAR-4 ovarian | OVCAR-5 ovarian | OVCAR-8 ovarian | RXF 393 renal | SF-268 CNS | SF-295 CNS | SF-539 CNS | SK-MEL-2 melanoma | SK-MEL-28 melanoma | SK-MEL-5 melanoma | SN12C renal | SNB-19 CNS | SNB-78 CNS | SW-620 colon | TK-10 renal | U251 CNS | UACC-257 melanoma | UACC-62 melanoma | XF 498 CNS
